Measurements reported in US20240139193A1, “COMBINATION THERAPY OF KRAS INHIBITOR AND SHP2 INHIBITOR FOR TREATMENT OF CANCERS” (AMGEN INC., priority 2019, published 2024).

Legend:
KRAS p.G12C models = conditions: preclinical KRAS p.G12C models; cited from earlier work
KRAS p.G12C tumors [1] = experiment: Preclinical anti-tumor efficacy of AMG 510; assay type: in vivo
KRAS p.G12C tumors [2] = experiment: AMG 510 treatment in immune-competent mice; assay type: in vivo

SMILES | in vivo efficacy (KRAS p.G12C models) | anti-tumor efficacy of chemotherapy and targeted agents in combination (KRAS p.G12C tumors [1]) | outcome in combination with immune checkpoint inhibition (KRAS p.G12C tumors [2])
C=CC(=O)N1CCN(c2ncnc3c(F)c(-c4c(O)cccc4F)c(Cl)cc23)CC1 [ARS-1620] | demonstrates in vivo efficacy |  | 
C=CC(=O)N1CCN(c2nc(=O)n(-c3c(C)ccnc3C(C)C)c3nc(-c4c(O)cccc4F)c(F)cc23)[C@@H](C)C1 [Compound A, 4-((S)-4-acryloyl-2-methylpiperazin-1-yl)-6-fluoro-7-(2-fluoro-6-hydroxyphenyl)-1-(2-isopropyl-4-methylpyridin-3-yl)pyrido[2,3-d]pyrimidin-2(1H)-one] |  | significantly improved | durable cures
